This is an account of results in article PMC12313074, “Targeting translation initiation yields fast-killing therapeutics against the zoonotic parasite Cryptosporidium parvum” (PLOS Pathogens, 2025).

Broadly, the Kd is the constant that tells how readily two partners part at equilibrium.

The target in data set [1] is T1, MDR1 (multi-drug resistance-1) (Homo sapiens, UniProt P08183).
T1 construct: gene ABCB1; transient over-expression from pCMV3-MDR1 in HCT-8 cells
Briefly: cell tolerance (viability) assay, MDR1-overexpressing vs vector HCT-8 cells, reversed by elacridar. Type of data set: cell-based.

The target of the next data set is MBP-CpeIF4A (Cryptosporidium parvum, UniProt F0X401 1-405). Briefly: RNA alone, no ATP, no Roc-A; TSA: 90 mM Na2HPO4, 10 mM NaH2PO4, 2 mM DTT, pH 7.8, 5 uM MBP-CpeIF4A, 20 uM SYPRO Orange; melt 40-70 C at 1 C/min. Conditions: protein: recombinant; tags: N-terminal MBP (pMAL-c5X); label: 6-FAM on 42-nt strand (text says 5' end, printed at 3'); BHQ-1 on 24-nt strand (text says 3', printed at 5'); 5' overhang 18 nt on strand 1, 24 bp duplex.

In the case of `COc1ccc([C@@]23Oc4cc(OC)cc(OC)c4[C@]2(O)[C@H](O)[C@H](C(=O)N(C)C)[C@H]3c2ccccc2)cc1` [Roc-A, Rocaglamide A], the “cell tolerance (viability) assay, MDR1-overexpressing vs vector HCT-8 cells, rev” value in data set [1] was “reversed this tolerance in a dose-dependent manner (Fig 1D, bars from 3a to 6b), verifying that Roc-A is an MDR1 substrate”.

B1: 5'-overhanging duplex RNA (42/24 nt) (dsRNA)
RNA 1: CAUUAUCGGAUAGUGGAACCUAGCUUCGACUAUCGGAUAAUC
RNA 2: GAUUAUCCGAUAGUCGAAGCUAGG
As to B1, in the data set with MBP-CpeIF4A, the equilibrium dissociation constant (Kd) was found to be 1130 nM.
